Test [1] has as its system oral ulcer induced by acetic acid in rats. The experiment in a line: Acetic acid-induced oral ulcer model in rats (body weight, food intake, ulcer diameter). Type of test: in vivo, SD rats. Particulars: 0.3 mg/kg intraperitoneal once a day. The source says:
Rats were anesthetized by intraperitoneal injection of 10% chloral hydrate solution. After anesthesia, 3 mm×3 mm filter paper impregnated with 100% glacial acetic acid was clung to the right buccal mucosa of rats for 45 s. After cauterization for 45 s, a round or oval white lesion of the buccal mucosa in this area was observed, indicating successful modeling.
All animals with successful modeling were randomly divided into six groups according to the ulcer area: (1) model group, 14 rats; (2) Xilei powder (15 mg/kg) group, 12 rats; (3) dexamethasone (0.3 mg/kg) group, 13 rats; (4) anemoside B4 high dose (about 60 mg/kg*3, i.e. 14 mg/suppository, one suppository/time, 3 times/day) group, 14 rats; (5) anemoside B4 medium dose (about 30 mg/kg*3, i.e. 7 mg/suppository, one suppository/time, 3 times/day) group, 14 rats; (6) anemoside B4 low dose (about 15 mg/kg*3, i.e. 3.5 mg/suppository, one suppository/time, 3 times/day) group, 14 rats; and 6 rats were included in the normal group.
24 h after modeling, drug was administrated for 3 successive days, including: local administration in Xilei powder group, once a day; intraperitoneal injection in dexamethasone group, once a day; rectal administration in anemoside B4 group, 3 times a day, and administration of blank suppository in model group, 3 times a day.
(1) General observation: daily food intake per cage was measured from the 2nd day after modeling, and animal weight was measured every 2 days. (2) Measurement of ulcer surface diameter: on the 2nd, 4th and 5th day after modeling, the diameter of ulcer surface was measured with a vernier caliper and recorded.

In test [2] the test system is oral ulcer induced by paclitaxel in rats. The test can be described thus: Paclitaxel-induced oral ulcer model in rats (food intake, ulcer diameter). It counts as in vivo, SD rats. Particulars: intraperitoneal once a day for 5 days. Here is the method:
Rats were anesthetized by intraperitoneal injection of 10% chloral hydrate solution. After anesthesia, the oral ulcer model induced by chemotherapeutic drugs was established by injecting 50 μl of 6 mg/ml paclitaxel injection into the right buccal mucosa of rats.
All animals with successful modeling were randomly divided into model group, (7 rats), anemoside B4 high dose (about 60 mg/kg*2) group (7 rats), and normal group (6 rats).
24 h after modeling, in anemoside B4 group, rectal administration was performed, 1 suppository/time, twice a day, for 5 successive days; in dexamethasone group, intraperitoneal administration was performed, once a day, for 5 successive days; and in model group, blank suppository was given.
(1) General observation: On the day of modeling, rats were fasted but free access to water for 12 hours, while the diet was given quantitatively on the second day after modeling, and the food intake of rats in each cage was measured daily from the third day after modeling (the second day after administration). (2) Measurement of ulcer surface diameter: from the 2nd day after modeling, the diameter of ulcer surface was measured with a vernier caliper and recorded for 7 successive days.

Molecules are shown by their SMILES.

For `C[C@@H]1C[C@H]2[C@@H]3CCC4=CC(=O)C=C[C@]4(C)[C@@]3(F)[C@@H](O)C[C@]2(C)[C@@]1(O)C(=O)CO` [Dexamethasone], the Body weight is on record as 230 + 8.3 g in test [1] (the 2nd day after modeling), 216 + 9.2 g in test [1] (the 4th day after modeling) and 213 + 13.7 g in test [1] (the 6th day after modeling). The “Diameter of oral ulcer” value in test [1] (the 2nd day after modeling) is reported as 4.64 ± 0.38 mm; in test [1] (the 4th day after modeling) it was 3.16 ± 0.18 mm; in test [1] (the 5th day after modeling), 2.78 ± 0.26 mm. In addition, the “Food intake (g)/rat” value in test [1] (the 3rd day after modeling) is 13.4 ± 3.35 g; in test [1] (the 4th day after modeling), 8.2 ± 2.39 g; in test [1] (the 5th day after modeling), 12.1 ± 4.70 g. Also, the “Diameter of oral ulcers” value turned out to be 3.93 ± 0.48 mm in test [2] (the 2nd day after modeling); 4.00 ± 0.40 mm in test [2] (the 3rd day after modeling); 3.88 ± 0.58 mm in test [2] (the 4th day after modeling); 3.50 ± 0.87 mm in test [2] (the 5th day after modeling); 3.26 ± 0.84 mm in test [2] (the 6th day after modeling); 2.85 ± 0.81 mm in test [2] (the 7th day after modeling). The Food intake/rat stood at 13.78 ± 3.83 g in test [2] (the 3rd day after modeling); 10.61 ± 2.48 g in test [2] (the 4th day after modeling); 13.91 ± 1.92 g in test [2] (the 5th day after modeling); 19.84 ± 1.14 g in test [2] (the 6th day after modeling); 18.79 ± 0.56 g in test [2] (the 7th day after modeling).

The values are drawn from patent publication US20230102973A1, “Medical Use of Anemoside B4 in the Treatment of Oral Ulcers” (priority 2020, published 2023).
